Test results from ChEMBL document CHEMBL4673222, “Discovery of a Bioactive Inhibitor with a New Scaffold for Cystathionine γ-Lyase” (J Med Chem, 2019).
The source made the active and inactive calls. The calls are words filed in the database; no cut-off is given here.

Assays:
[1] = system: Rattus norvegicus; assay: Inhibition of CSE in Sprague-Dawley rat model of hemorrhagic shock assessed as reduction in plasma H2S level at 50 mg/kg, ip after 45 mins by methylene blue dye based method; format: functional, organism-based
[2] = system: Rattus norvegicus; assay: Reversal of hypotension in Sprague-Dawley rat model of hemorrhagic shock assessed as mean artery pressure level at 50 mg/kg, ip after 45 mins (reference value: 35.8 mmHg); format: functional; conditions: 0.75 h
[3] = system: RAW264.7; assay: Toxicity in mouse RAW264.7 cells assessed as cell viability up to 100 uM incubated for 12 to 24 hrs by CellTiter96 aqueous one solution cell proliferation assay; format: cell-based; conditions: time 12-24 hrs
[4] = molecular target: T1, Cystathionine gamma-lyase (Homo sapiens, UniProt P32929); assay: Inhibition of human CSE expressed in HEK293T cells assessed as reduction in H2S contents at 20 to 50 uM by lead acetate assay; format: cell-based; conditions: dose 20-50 µM
T1 sequence (P32929 whole entry): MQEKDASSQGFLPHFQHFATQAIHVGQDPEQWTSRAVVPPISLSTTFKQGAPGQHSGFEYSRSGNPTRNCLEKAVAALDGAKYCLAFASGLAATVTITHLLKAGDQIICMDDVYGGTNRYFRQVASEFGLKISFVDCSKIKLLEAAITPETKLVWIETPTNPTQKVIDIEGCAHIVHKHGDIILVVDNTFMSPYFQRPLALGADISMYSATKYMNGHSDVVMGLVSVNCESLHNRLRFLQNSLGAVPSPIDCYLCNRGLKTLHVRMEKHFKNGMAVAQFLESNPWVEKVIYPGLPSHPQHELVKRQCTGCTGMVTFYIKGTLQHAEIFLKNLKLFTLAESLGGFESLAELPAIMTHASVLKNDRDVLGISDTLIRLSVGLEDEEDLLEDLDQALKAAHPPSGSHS

[5] = system: HEK-293T; assay: Toxicity in HEK293T cells assessed as cell viability up to 100 uM incubated for 12 to 24 hrs by CellTiter96 aqueous one solution cell proliferation assay; format: cell-based; conditions: human, time 12-24 hrs
[6] = system: Cystathionine gamma-lyase (Homo sapiens), P32929 [R119K]; assay: Inhibition of human CSE R119K mutant expressed in HEK293T cells assessed as reduction in H2S contents at 200 to 500 uM by lead acetate assay; format: cell-based; conditions: dose 200-500 µM
Sequence of Cystathionine gamma-lyase (Homo sapiens), P32929 [R119K] (P32929 whole entry R119K): as the sequence (P32929 whole entry) above, with R119K counted along it

[7] = molecular target: T2, Cystathionine beta-synthase (Homo sapiens, UniProt P35520); assay: Inhibition of wild type human CBS expressed in HEK293T cells assessed as reduction in H2S contents; format: cell-based
T2 sequence (P35520 whole entry): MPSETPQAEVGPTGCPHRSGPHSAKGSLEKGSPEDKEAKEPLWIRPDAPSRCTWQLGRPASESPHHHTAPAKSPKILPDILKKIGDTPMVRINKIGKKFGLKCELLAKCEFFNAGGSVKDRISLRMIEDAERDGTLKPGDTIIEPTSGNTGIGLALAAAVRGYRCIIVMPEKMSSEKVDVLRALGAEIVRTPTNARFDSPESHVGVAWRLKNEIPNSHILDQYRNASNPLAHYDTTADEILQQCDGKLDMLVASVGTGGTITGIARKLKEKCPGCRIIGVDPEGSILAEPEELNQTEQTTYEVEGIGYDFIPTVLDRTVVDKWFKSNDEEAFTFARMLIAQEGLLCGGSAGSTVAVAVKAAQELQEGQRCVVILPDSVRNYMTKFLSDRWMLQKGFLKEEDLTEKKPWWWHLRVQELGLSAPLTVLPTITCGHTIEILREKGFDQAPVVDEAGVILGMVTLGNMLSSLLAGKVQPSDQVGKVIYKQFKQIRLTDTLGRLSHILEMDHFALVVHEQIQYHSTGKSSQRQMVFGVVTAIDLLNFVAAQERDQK

[8] = molecular target: Cystathionine gamma-lyase (Homo sapiens, UniProt P32929, R119K); assay: Inhibition of human CSE R119K mutant expressed in HEK293T cells assessed as reduction in H2S contents; format: cell-based
Sequence of Cystathionine gamma-lyase (Homo sapiens, UniProt P32929, R119K) (P32929 whole entry R119K): as the sequence (P32929 whole entry) above, with R119K counted along it

[9] = molecular target: Cystathionine gamma-lyase (Homo sapiens, UniProt P32929, Y114F); assay: Inhibition of human CSE Y114F mutant expressed in HEK293T cells assessed as reduction in H2S contents; format: cell-based
Sequence of Cystathionine gamma-lyase (Homo sapiens, UniProt P32929, Y114F) (P32929 whole entry Y114F): as the sequence (P32929 whole entry) above, with Y114F counted along it

[10] = molecular target: Cystathionine gamma-lyase (Homo sapiens, UniProt P32929, R119A); assay: Inhibition of human CSE R119A mutant expressed in HEK293T cells assessed as reduction in H2S contents; format: cell-based
Sequence of Cystathionine gamma-lyase (Homo sapiens, UniProt P32929, R119A) (P32929 whole entry R119A): as the sequence (P32929 whole entry) above, with R119A counted along it

[11] = species: Homo sapiens; assay: Selectivity index, ratio of IC50 for human CSE R119A mutant expressed in HEK293T cells to IC50 for wild type human CSE expressed in HEK293T cells; format: cell-based
[12] = molecular target: T1, Cystathionine gamma-lyase; assay: Inhibition of wild type human CSE expressed in HEK293T cells assessed as reduction in H2S contents; format: cell-based
[13] = molecular target: Cystathionine gamma-lyase (Mus musculus) (UniProt Q8VCN5); assay: Inhibition of CSE in mouse RAW264.7 cells assessed as increase in levels of cellular H-cys level at 1 to 500 uM by ELISA; format: cell-based; conditions: dose 1-500 µM
Sequence of Cystathionine gamma-lyase (Mus musculus) (Q8VCN5 whole entry): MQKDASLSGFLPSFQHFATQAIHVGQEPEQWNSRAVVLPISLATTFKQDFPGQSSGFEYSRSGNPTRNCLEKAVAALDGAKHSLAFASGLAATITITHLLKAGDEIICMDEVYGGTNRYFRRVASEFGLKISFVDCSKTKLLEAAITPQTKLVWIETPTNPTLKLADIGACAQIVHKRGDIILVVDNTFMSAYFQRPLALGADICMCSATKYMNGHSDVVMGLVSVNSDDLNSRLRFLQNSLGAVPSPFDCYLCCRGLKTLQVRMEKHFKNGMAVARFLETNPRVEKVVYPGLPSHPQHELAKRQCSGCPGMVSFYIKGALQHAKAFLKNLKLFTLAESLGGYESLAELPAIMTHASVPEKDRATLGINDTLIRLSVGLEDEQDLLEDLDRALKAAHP

[14] = molecular target: Cystathionine gamma-lyase (Mus musculus) (UniProt Q8VCN5); assay: Potency index, ratio of inhibition activity of PAG to test compound for inhibition of CSE in mouse RAW264.7 cells assessed as reduction in amount of released H2S level by lead acetate method; format: cell-based
[15] = molecular target: Cystathionine gamma-lyase (Mus musculus) (UniProt Q8VCN5); assay: Inhibition of CSE in mouse RAW264.7 cells assessed as reduction in amount of released H2S level at 20 to 50 uM by lead acetate method; format: cell-based; conditions: dose 20-50 µM
[16] = species: Homo sapiens; assay: Selectivity index, ratio of Ki for human CSE R119K mutant to Ki for wild type human CSE
[17] = molecular target: Cystathionine gamma-lyase (Mus musculus) (UniProt Q8VCN5); assay: (§1) Inhibition of CSE in mouse RAW264.7 cells assessed as reduction in endogenous H2S level by AzMC probe based fluorescence assay; format: cell-based
[18] = molecular target: Cystathionine gamma-lyase (Mus musculus, UniProt Q8VCN5); assay: as §1; format: cell-based
Sequence of Cystathionine gamma-lyase (Mus musculus, UniProt Q8VCN5) (Q8VCN5 whole entry): as above

[19] = species: Homo sapiens; assay: Selectivity index, ratio of IC50 for human CSE R119K mutant to IC50 for wild type human CSE
[20] = species: Homo sapiens; assay: Selectivity index, ratio of IC50 for human CSE Y114F mutant to IC50 for wild type human CSE
[21] = species: Homo sapiens; assay: Selectivity index, ratio of IC50 for human CSE Y114A mutant to IC50 for wild type human CSE
[22] = species: Homo sapiens; assay: Selectivity index, ratio of IC50 for human CSE R62A mutant to IC50 for wild type human CSE
[23] = molecular target: T1, Cystathionine gamma-lyase; assay: Competitive inhibition of human CSE using varying levels of L-Cys as substrate and fixed PLP levels
[24] = molecular target: T1, Cystathionine gamma-lyase; assay: Binding affinity to human CSE by ITC analysis
[25] = molecular target: T1, Cystathionine gamma-lyase; assay: Inhibition of human CSE by methylene blue method
[26] = molecular target: T2, Cystathionine beta-synthase; assay: Inhibition of CBS (unknown origin) by AzMC based fluorescence assay
[27] = molecular target: T1, Cystathionine gamma-lyase; assay: Inhibition of human CSE using H-Cys as the substrate by tandem well based HTS assay
[28] = molecular target: T1, Cystathionine gamma-lyase; assay: Inhibition of human CSE using H-Cys as the substrate by LC/MS/MS-based assay
[29] = molecular target: T1, Cystathionine gamma-lyase; assay: Inhibition of human CSE using L-Cys as the substrate in presence of 0.01% Triton X-100 by tandem well based HTS assay
[30] = molecular target: T1, Cystathionine gamma-lyase; assay: Inhibition of human CSE using L-Cys as the substrate in presence of 0.025% Triton X-100 by tandem well based HTS assay
[31] = Binding affinity to H2S assessed as absorbing of released H2S up to 100 uM in presence of NaHS as H2S donor; conditions: dose microM <=100
[32] = species: Homo sapiens; assay: Selectivity index, ratio of IC50 for human CBS to IC50 for human CSE
[33] = species: Homo sapiens; assay: Selectivity index, ratio of IC50 for human CBS to IC50 for human DDC
[34] = molecular target: T1, Cystathionine gamma-lyase; assay: Inhibition of human CSE using L-Cys as the substrate by tandem well based HTS assay

## O=C(O)C1=CC(=C(c2ccc(O)c(C(=O)O)c2)c2ccc(O)c(C(=O)O)c2)C=CC1=O [AURINTRICARBOXYLIC ACID]
[1]
  inhibition: Active
[2]
  Activity: 65 mmHg
[3]
  Activity: Non-Toxic
[4]
  inhibition: Active
[5]
  Activity: Non-Toxic
[6]
  inhibition: inactive
[7]
  IC50: > 650 µM
[8]
  IC50: 245 µM
[9]
  IC50: 283 µM
[10]
  IC50: 371 µM
[11]
  Ratio IC50: 6
[12]
  IC50: 34.7 µM
  inhibition: Dose-dependent effect
[13]
  inhibition: Active
[14]
  Ratio: 8
[15]
  inhibition: Active
[16]
  Ratio Ki: 40.5
[17]
  inhibition: Dose-dependent effect
[18]
  IC50: 43.2 µM
[19]
  Ratio IC50: 26
[20]
  Ratio IC50: 29.6
[21]
  Ratio IC50: > 10
[22]
  Ratio IC50: > 10
[23]
  Ki: 0.6 µM
[24]
  Kd: 3.4 µM
[25]
  IC50: 2.6 µM
[26]
  IC50: 3 µM
[27]
  IC50: 1.7 µM
[28]
  IC50: 3.3 µM
  inhibition: Dose-dependent effect
[29]
  IC50: 1.8 µM
[30]
  IC50: 1.8 µM
[31]
  Activity: inactive
[32]
  Ratio IC50: 137
[33]
  Ratio IC50: 143
[34]
  IC50: 0.6 µM
